Assay results published in US20100204149A1, “USE OF OCTREOTIDE AS A THERAPEUTIC AGENT” (priority 2007, published 2010).

How the values were obtained:
HIV-1IIIB = assay: HIV-1 antiviral assay (CPE reduction) in CEM-SS cells; conditions: peptide 10 micrograms per ml; 6 days post-infection; MTS
HCMV strain AD169 = assay: HCMV plaque reduction assay in MRC-5 cells; assay type: cell-based; conditions: peptide 10 micrograms per ml, 7-10 days
Description: Ganciclovir was used as positive control.

[1] = test system: MRC-5 cells (human embryonal lung fibroblasts); assay: Cytotoxicity testing in MRC-5 cells (CellTiter 96); assay type: cell-based; conditions: 6 days
Description: For cytotoxicity testing, MRC-5 cells were seeded at 2,500 cells/well in 96 well plates using growth medium. […] The following day, peptide was added and tested in duplicates. After a 6 days incubation period, cell viability was measured using CellTiter 96 Solution (Promega). Plates were incubated for additional 4 hours at 37° C.

CEM-SS cells = assay: Cytotoxicity (MTS cell viability) in HIV-1 assay; conditions: peptide 10 micrograms per ml, MTS

CC(C)(C)NC(=O)[C@@H]1CN(Cc2cccnc2)CCN1C[C@@H](O)C[C@@H](Cc1ccccc1)C(=O)N[C@H]1c2ccccc2C[C@H]1O [Indinavir]
% CPE reduction in HIV-1 infected CEM-SS cells (HIV-1IIIB): 100%

Nc1nc(O)c2ncn(COC(CO)CO)c2n1 [Ganciclovir, reference compound]
% plaque reduction (HCMV strain AD169): 100% | % Cell viability [1]: 100%

Cc1cn([C@H]2C[C@H](N=[N+]=[N-])[C@@H](CO)O2)c(=O)[nH]c1=O [AZT, reference compound]
% Cell viability (CEM-SS cells): 97% | % CPE reduction in HIV-1 infected CEM-SS cells (HIV-1IIIB): 99%
